Experimental data reported in patent publication US20220017861A1, “UREMIC VASCULOPATHY MODEL USING ENDOTHELIAL CELLS DERIVED FROM INDUCED PLURIPOTENT STEM CELLS AND UREMIC COMPLEX, AND USE THEREOF” (SAMSUNG LIFE PUBLIC WELFARE FOUNDATION, priority 2018, published 2022).
Counter-ions that a name gives are not always drawn.

Key:
Type in all cases: cell-based
[1] = test system: endothelial cells derived from normal control induced pluripotent stem cells; experiment: Drug effect verification by tube formation in uremic vasculopathy endothelial cell model; conditions: cells exposed to uremic toxin mixture or ESKD patient serum, then treated with drug, FIG. 11
Method: (§1) In order to evaluate the functional abnormality of endothelial cells that may form vascular structures, the tube formation ability was measured. After seeding endothelial cells into a 24 or 12-well plate applied with Matrigel (Corning, catalog number CB-40234). After 16 to 24 hours of incubation, the level of tube formation was compared and analyzed.
In order to confirm whether the effect of the drug can be verified using the uremic vasculopathy endothelial cell model prepared by treating with the uremic toxin mixture of the present invention, the uremic toxin mixture of the present invention or ESKD patient's serum was applied to endothelial cells derived from normal control induced pluripotent stem cells. Then, SD-208 (TGF-β inhibitor) and losartan (angiotensin receptor blocker) were treated to measure the level of tube formation in order to examine respective effects. The endothelial cells' tube formation ability was measured and compared in the uremic toxin mixture of the present invention (UT-F, UT-H, uric acid 3 (UA 3)), serum of patients with chronic kidney disease (patient 2, patient 4), normal control serum (control 1) and cell culture medium alone (media only).

[2] = test system: endothelial cells differentiated from induced pluripotent stem cells; experiment: Apoptosis of endothelial cells (Caspase-Glo 3/7 assay); conditions: FIG. 7
Method: , apoptosis of endothelial cell was measured according to the manufactural instructions using the Caspase-Glo 3/7 assay systems kit (Promega, catalog number G8091), and the results are shown in FIG. 4.

[3] = test system: endothelial cells differentiated from induced pluripotent stem cells; experiment: Tube formation ability of endothelial cells on Matrigel; conditions: 16 to 24 hours of incubation on Matrigel, FIGS. 8 and 9
Method: as §1
In order to confirm the reliability and effectiveness of the uremic vasculopathy endothelial cell model prepared by treating endothelial cells with the uremic toxin mixture of the present invention, the level of tube formation was measured to compare effects of the serum of ESKD patient undergoing hemodialysis and the uremic toxin mixture of the present invention by measuring the tube formation level.

Compound | inhibition of endothelial cell tube formation after drug treatment [1] | apoptosis of endothelial cells ([2]; single uremic toxin at 1 mM) | other results
Fc1ccc(Cl)cc1-c1nc(Nc2ccncc2)c2nccnc2n1 [SD-208] | alleviated | – | –
O=S(=O)(O)Oc1c[nH]c2ccccc12 [indoxyl sulfate, Indoxyl sulfate] | – | not significantly promoted | –
O=c1[nH]c(=O)c2[nH]c(=O)[nH]c2[nH]1 [uric acid, Uric acid] | – | significantly promoted | tube formation ability of endothelial cells [3]: well maintained
NC(N)=O [urea, Urea] | – | – | apoptosis of endothelial cells ([2]; single uremic toxin at 50 mM): not significantly promoted
CCCCc1nc(Cl)c(CO)n1Cc1ccc(-c2ccccc2-c2nn[nH]n2)cc1 [losartan] | alleviated | – | –
